# Reference: patent US4758586A, “Indolyl compounds and hyposensitivity use thereof” (USV Pharmaceutical Corp., priority 1986, dated 1988)
# Tests used:
# Phospholipase A2 (PLA2) = target: T1, Phospholipase A2 (PLA2) (Rattus norvegicus, UniProt P14423); test: In vitro assay for inhibitors of Phospholipase A2 (PLA2) from rat platelets; assay type: biochemical; details: pH 7.2, 37° C.; read-out: PLA2, I50
# T1 construct: obtained by aggregation of purified rat platelets; from tissue; host or cells: rat platelets (enzyme obtained by aggregation)
# T1 sequence (P14423 22-146): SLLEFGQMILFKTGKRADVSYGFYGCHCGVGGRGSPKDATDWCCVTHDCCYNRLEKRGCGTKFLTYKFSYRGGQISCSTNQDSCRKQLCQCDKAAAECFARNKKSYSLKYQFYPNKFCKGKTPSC
# Description: B. In Vitro Assay For Inhibitors of Phospholipase A2 Assayed at pH 7.0 (PLA2)
# The PLA2 employed in this screen is obtained by aggregation of purified rat platelets. In the enzyme assay phosphatidylcholine having ^14 C-labeled palmitate residues at R1 and R2 is employed as substrate. PLA2 acts by cleaving the R2 fatty acid ester bond yielding free fatty acid and lysophosphatidyl choline as follows: [drawing 19]
# Following completion of the reaction, the assay medium is acidified and extracted with hexane, which takes up unreacted substrate and free fatty acid product. The hexane extract is passed over a short silica column which retains 99% of the phosphatidyl choline. The ^14 C-labeled palmitic acid is not retained (90% recovery in eluate) and is collected directly in scintillation counting vials. The released palmitic acid is conveniently quantitated by liquid scintillation spectrometry.
# The compounds were tested at 100 uM in a buffer containing 0.3 mM unlabeled phosphatidylcholine (PC), 20-30,000 cpm of ^14 C(CPC), […], 1 mM CaCl2 and 50 mM tris-HCl adjusted to pH 7.2 with 1N NaOH. […] The temperature of the buffer was maintained at a temperature of 37° C. The reaction was initiated by addition of the enzyme and it was terminated 30 minutes later by the addition of […] of 1N HCl.
# Following acidification, the samples were extracted with 2 ml of 2-propanol and 2 ml of hexane, vortexed and allowed to stand until the phases separated. Free fatty acids (FFA) and some unreacted substrate were taken up in the isopropanol-saturated hexane. The hexane phase of the extraction mixture was transferred to a short silica gel column which retained […] but not the FFA. The column effluent was collected directly in scintillation vials. The columns were washed once with an additional 2 ml of hexane. The radio labeled FFA were quantitated by liquid scintillation spectrometry.
# Phospholipase C (PLC) = test: In vitro assay for inhibitors of Phospholipase C (PLC) from rat platelets; assay type: biochemical; details: read-out: PLC, I50
# Description: A. Protocol For In Vitro Assay For Inhibitors Of Phospholipase C (PLC)
# The PLC employed in this screen is obtained by aggregation of purified rat platelets in the presence of CaCl2 and ADP. In the enzyme assay phosphatidylinositol having ^3 H -labeled arachidonate residues at R2 is employed as substrate. PLC acts by cleaving the phosphate ester bond yielding diglyceride as follows: [drawing 18]
# Following completion of the reaction, the assay medium is acidified and extracted with hexane which takes up unreacted substrate and diglyceride. The hexane extract is passed over a short silica gel column which retains 99% of the phosphatidylinositol. The ^3 H-labeled diglyceride is not retained […]. The diglyceride is conveniently quantitated by liquid scintillation spectrometry.
# The compounds were tested at 300 u in a buffer containing 0.06 mM unlabeled phosphatidylcholine (PC), 20-30,000 cpm of (CPC), 150 mM NaCl, 5 mM CaCl2 and 50 mM tris(hydroxymethyl)methylaminopropanesulfonic acid buffer, adjusted to pH 9.0 with 1N NaOH. The temperature of the buffer was maintained at a temperature of 37° C. The reaction was initiated by addition of the enzyme and it was terminated 10 minutes later by addition of 1 ml of 1N HCl.
# Following acidification, the samples were extracted with 2 ml of isopropyl alcohol and 2 ml of hexane, vortexed and allowed to stand until the phases separate. […] and some unreacted substrate were taken up in the isopropanol-saturated hexane. The hexane phase of the extraction mixture was transferred to a short silica gel column which retains unreacted phosphatidylinositol, but not the 3H-diglyceride. The column effluent was collected directly in scintillation vials. The columns were washed once with additional 2 ml of hexane. The radiolabelled diglycerides were quantitated by liquid scintillation.
# [1] = test system: leukotriene C4 -induced contraction of guinea pig peripheral strips; test: SRS-A antagonists (SALTI): leukotriene C4-induced contraction of guinea pig peripheral lung strips; details: Cavia porcellus; 0.2 μM leukotriene C4-induced contraction; read-out: SALTI, I50 μM
# Method: Protocol for SRS-A (Slow-reacting Substance of Anaphylaxis Antagonists (SALTI)
# Peripheral strips of guinea pig lungs are prepared and hung in tissue baths (Metro #ME-5505, 10 ml) according to the published procedure (Pro. Nat'l. Acad. Sci., U.S.A. Volume 77, pp. 4354-4358, 1980). The strips are thoroughly rinsed in Assay Buffer and then connected with surgical silk thread to the support rods from the tissue baths. The rods are adjusted in the baths and the strips connected to the pressure transducers (Grass FT 103 or Gould UC-3). The tissue baths are aerated with 95% oxygen 5% carbon dioxide and maintained at 37° C. The Assay Buffer has been made as follows: For each liter of buffer the following are added to approximately 800 ml of water distilled in glass--6.87 g. NaCl, 0.4 g. KCl, […]. NaHCO3, 0.14 g. NaH2 PO4.H2 O, 0.21 g. MgSO4.7H2 O, and 2.0 g. D-glucose. Then a solution of 0.368 g. CaCl2.2H2 O in 100 ml glass-distilled water is slowly added to the buffer. Sufficient water is added to adjust the volume to one liter, and the solution is aerated with 95% oxygen--5% carbon dioxide. Usually 10 liters of buffer are used for an experiment with 4 tissues.
# After the tissues have been repeatedly washed and allowed to equilibrate in the tissue bath, they are challenged with 1 μM histamine. After maximum contractions have been obtained, the tissues are washed, and allowed to relax back to baseline tension. This histamine challenge procedure is repeated at least 1 to 2 more times to obtain a repeatable control response. The average response to 1 μM histamine for each tissue is used to normalize all other challenges.
# Responses of each tissue to a predetermined concentration of leukotriene are then obtained. Usually test compounds are examined initially at 30 μM on resting tension of the tissues without any added agonist or antagonist to determine if the compound has any possible intrinsic activity. The tissues are washed, and the test compound is added again. Leukotriene is added after the desired pre-incubation time. The intrinsic activity of the compounds, and their effect on leukotriene-induced contractions are then recorded.
# The concentration required for 50% inhibition of 0.2 μM leukotriene C4 -induced contraction of guinea pig peripheral strips for representative compounds of the present invention is shown in Table 3.
structure (smiles),measurement,setting,value
"Cc1c(C=CC=CC(=O)O)c2ccccc2n1Cc1ccccc1 [Example 12, 5-(1-Benzyl-2-methylindol-3-yl)-2,4-Pentadienoic Acid]",IC50,Phospholipase A2 (PLA2),37 µM
same,IC50,Phospholipase C (PLC),40 µM
same,IC50,[1],15 µM
